In series [1] the target is Acetylcholinesterase (Homo sapiens, UniProt P22303). Kind of series: Inhibition of human AChE using acetylthiocholine iodide as substrate incubated for 6 mins prior to substrate addition measured after 60 to 180 secs by Ellman method. (In general: DTNB colorimetry detects thiols as they appear.)
Series [2] deals with T1, Amine oxidase [flavin-containing] A (Homo sapiens, UniProt P21397).
T1 sequence (P21397 whole entry): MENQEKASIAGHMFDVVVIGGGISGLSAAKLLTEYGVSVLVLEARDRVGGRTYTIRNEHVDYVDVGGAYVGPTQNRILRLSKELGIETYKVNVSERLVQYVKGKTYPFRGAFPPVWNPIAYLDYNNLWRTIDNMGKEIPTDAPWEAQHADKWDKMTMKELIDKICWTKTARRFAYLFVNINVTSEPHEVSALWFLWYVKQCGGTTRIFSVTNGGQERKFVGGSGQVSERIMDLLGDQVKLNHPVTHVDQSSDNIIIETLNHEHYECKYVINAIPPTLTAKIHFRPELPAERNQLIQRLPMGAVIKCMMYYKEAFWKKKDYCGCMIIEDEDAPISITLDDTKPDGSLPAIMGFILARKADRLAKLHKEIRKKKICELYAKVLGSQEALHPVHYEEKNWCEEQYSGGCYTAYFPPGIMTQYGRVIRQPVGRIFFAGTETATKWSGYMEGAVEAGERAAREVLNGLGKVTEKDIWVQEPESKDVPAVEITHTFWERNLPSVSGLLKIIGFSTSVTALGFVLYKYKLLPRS
Description: Inhibition of human MAO-A using p-tyramine as substrate assessed as H2O2 production by amplex red assay.

Series [3] in a line: Cytotoxicity against human SH-SY5Y cells assessed as cell viability at […] after 24 hrs by MTT assay. The format is cell-based. The following applies: read-out: Activity. In general terms: Formazan colour is commonly taken as a measure of viable cells.
Series [4] in a line: Cytotoxicity against human SH-SY5Y cells assessed as cell viability at 3.25 uM after 24 hrs by MTT assay. The following applies: read-out: Activity. The format is cell-based.
Series [5] concerns the target T2, Acetylcholinesterase (Electrophorus electricus, UniProt O42275). Kind of series: Mixed-type inhibition of electric eel AChE by Lineweaver-Burk plot analysis.
The nature of another series: in vitro. The note with it: PAMPA. For orientation: PAMPA measures passive passage across an artificial lipid membrane.
Series [6] is described as follows: Cytotoxicity against human SH-SY5Y cells assessed as cell viability at 0.81 uM after 24 hrs by MTT assay. The format is cell-based. The following applies: read-out: Activity.
The next series concerns the target Cholinesterase (Homo sapiens, UniProt P06276). Description: Inhibition of human BuChE using S-butyrylthiocholine iodide as substrate incubated for 6 mins prior to substrate addition measured after 60 to 180 secs by Ellman method.
Series [7] has as its target T3, Amine oxidase [flavin-containing] B (Homo sapiens, UniProt P27338).
T3 sequence (P27338 whole entry): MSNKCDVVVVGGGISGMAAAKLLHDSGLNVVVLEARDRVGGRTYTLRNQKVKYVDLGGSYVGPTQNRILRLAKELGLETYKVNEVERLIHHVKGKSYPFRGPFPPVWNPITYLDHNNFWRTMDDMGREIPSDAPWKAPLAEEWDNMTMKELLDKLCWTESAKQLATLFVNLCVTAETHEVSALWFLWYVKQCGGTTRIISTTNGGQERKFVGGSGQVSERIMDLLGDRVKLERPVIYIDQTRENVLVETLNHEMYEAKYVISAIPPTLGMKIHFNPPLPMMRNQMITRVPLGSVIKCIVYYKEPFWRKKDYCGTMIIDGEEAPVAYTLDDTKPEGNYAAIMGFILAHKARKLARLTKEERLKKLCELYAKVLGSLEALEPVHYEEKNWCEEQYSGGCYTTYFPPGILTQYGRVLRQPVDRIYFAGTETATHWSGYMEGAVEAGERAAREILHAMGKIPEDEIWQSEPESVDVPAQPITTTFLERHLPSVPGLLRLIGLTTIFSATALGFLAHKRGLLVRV
Kind of series: Reversible inhibition of human MAO-B at 100 times IC50 incubated for 30 mins followed by 100 fold dilution to IC50 by dilution assay relative to control. The following applies: 0.5 h.

Series [8] can be described thus: Cytotoxicity against human SH-SY5Y cells assessed as cell viability at 1.63 uM after 24 hrs by MTT assay. The format is cell-based. The following applies: read-out: Activity.
The nature of series [9]: Cytotoxicity against human SH-SY5Y cells assessed as cell viability at 13 uM after 24 hrs by MTT assay. The following applies: read-out: Activity. The format is cell-based.
Series [10] deals with T3, Amine oxidase [flavin-containing] B. Kind of series: Competitive inhibition of human MAO-B using p-tyramine as substrate at 0.5 to 0.125 uM by double reciprocal Lineweaver-Burk plot analysis.
The species entered for a further series is Homo sapiens. Description: Selectivity index, ratio of IC50 for human MAO-A to IC50 for human MAO-B.
The target of series [11] is T2, Acetylcholinesterase.
Description: Inhibition of electric eel AChE using acetylthiocholine iodide as substrate incubated for 6 mins prior to substrate addition measured after 60 to 180 secs by Ellman method

One may read the IC50 as the midpoint of a concentration-inhibition curve. In general, Ki refers to a measure of affinity in units of concentration, obtained from inhibition or displacement. Lower therefore signals a stronger hold on the target. The term Papp denotes a coefficient for how fast a substance crosses the barrier. A high value points to ready permeation.

T2 sequence (O42275 whole entry): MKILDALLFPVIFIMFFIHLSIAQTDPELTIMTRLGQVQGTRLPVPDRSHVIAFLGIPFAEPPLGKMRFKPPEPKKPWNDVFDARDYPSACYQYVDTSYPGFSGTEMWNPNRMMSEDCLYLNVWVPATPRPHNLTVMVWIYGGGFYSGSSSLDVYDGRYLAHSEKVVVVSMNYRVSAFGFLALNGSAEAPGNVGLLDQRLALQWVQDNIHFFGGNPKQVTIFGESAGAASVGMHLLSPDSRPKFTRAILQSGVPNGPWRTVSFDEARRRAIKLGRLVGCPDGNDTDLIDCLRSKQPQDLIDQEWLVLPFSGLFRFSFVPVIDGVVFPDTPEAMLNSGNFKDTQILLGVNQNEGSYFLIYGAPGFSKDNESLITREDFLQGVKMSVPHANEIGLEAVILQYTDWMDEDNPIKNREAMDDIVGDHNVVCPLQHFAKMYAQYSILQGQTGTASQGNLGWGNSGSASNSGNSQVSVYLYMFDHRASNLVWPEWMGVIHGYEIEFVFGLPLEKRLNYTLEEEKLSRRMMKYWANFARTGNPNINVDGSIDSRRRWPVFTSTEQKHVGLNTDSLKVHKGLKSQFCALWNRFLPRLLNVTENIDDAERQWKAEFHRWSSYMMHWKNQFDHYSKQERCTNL
Sequence of Acetylcholinesterase (Homo sapiens, UniProt P22303) (P22303 whole entry): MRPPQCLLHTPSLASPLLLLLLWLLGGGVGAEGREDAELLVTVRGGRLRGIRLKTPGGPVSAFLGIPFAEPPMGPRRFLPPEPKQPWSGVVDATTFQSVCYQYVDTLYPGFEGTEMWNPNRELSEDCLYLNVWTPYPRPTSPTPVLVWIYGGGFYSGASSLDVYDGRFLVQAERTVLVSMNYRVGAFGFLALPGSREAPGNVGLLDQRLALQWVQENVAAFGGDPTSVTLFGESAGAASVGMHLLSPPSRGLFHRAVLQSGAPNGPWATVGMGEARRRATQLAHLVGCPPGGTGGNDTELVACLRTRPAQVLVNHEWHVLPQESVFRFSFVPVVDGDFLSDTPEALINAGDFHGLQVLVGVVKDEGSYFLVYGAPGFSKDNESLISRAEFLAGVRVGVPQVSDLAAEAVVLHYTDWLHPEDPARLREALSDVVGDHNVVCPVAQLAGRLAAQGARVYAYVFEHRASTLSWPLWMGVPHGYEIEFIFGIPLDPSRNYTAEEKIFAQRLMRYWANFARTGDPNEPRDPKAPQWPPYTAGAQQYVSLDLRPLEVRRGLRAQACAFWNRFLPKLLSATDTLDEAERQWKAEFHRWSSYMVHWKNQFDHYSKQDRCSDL
Sequence of Cholinesterase (P06276 whole entry): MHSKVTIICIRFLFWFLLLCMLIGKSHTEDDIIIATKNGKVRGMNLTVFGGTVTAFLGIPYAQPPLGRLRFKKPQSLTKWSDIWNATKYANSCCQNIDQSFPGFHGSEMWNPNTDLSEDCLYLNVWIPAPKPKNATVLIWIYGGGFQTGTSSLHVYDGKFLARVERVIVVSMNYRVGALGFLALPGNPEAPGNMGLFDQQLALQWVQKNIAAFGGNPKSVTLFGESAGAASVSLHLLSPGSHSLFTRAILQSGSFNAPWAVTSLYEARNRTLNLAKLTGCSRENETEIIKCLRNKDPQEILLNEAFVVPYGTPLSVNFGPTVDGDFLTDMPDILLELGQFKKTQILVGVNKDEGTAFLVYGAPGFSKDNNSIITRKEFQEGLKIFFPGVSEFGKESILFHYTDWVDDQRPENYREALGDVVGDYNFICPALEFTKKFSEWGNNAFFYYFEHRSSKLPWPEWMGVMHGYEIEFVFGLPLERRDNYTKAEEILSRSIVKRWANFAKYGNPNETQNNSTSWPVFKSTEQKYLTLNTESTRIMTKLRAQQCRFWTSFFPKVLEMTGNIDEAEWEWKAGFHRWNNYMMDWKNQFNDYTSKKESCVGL
Description for in vitro: Permeability of the compound after 16 hrs by PAMPA

For `Cc1c(C)c2ccc(OCCN3CCN(CCCNc4c5c(nc6ccccc46)CCCC5)CC3)cc2oc1=O`, the IC50 on Acetylcholinesterase [1] is 16.1 nM; in series [2], 15100 nM; at Cholinesterase it was 113 nM; against Acetylcholinesterase [11] it was 33.6 nM. Moreover, in series [3], the viability at 24 h, […] is 85.7%. For the same molecule, the viability at 24 h, 3.25 µM in series [4] turned out to be 91.1%. The molecule also returned a Ki at Acetylcholinesterase [5] of 34.4 nM. Moreover, in the series “in vitro”, the Papp at 16 h is 4.75 ×10⁻⁶ cm/s. Also, the viability at 24 h, 0.81 µM in series [6] is 101%. Also, the “inhibition (INH)” value is recorded as 79% in [7] and “Active” in [10]. The viability at 24 h, 1.63 µM in series [8] worked out at 96.6%. In addition, the viability at 24 h, 13 µM in [9] was found to be 77.1%. The Ratio IC50 in the series listed under Homo sapiens was 62.8.

Source of the values: ChEMBL document CHEMBL3414495, “Multi-target tacrine-coumarin hybrids: cholinesterase and monoamine oxidase B inhibition properties against Alzheimer's disease” (Eur J Med Chem, 2015).
